This note sets out measurements from US20230348487A1, “2-AMINOPYRIMIDINE COMPOUND AND PHARMACEUTICAL COMPOSITION THEREOF AND APPLICATION THEREOF” (GUANGZHOU SALUSTIER BIOSCIENCES CO., LTD., priority 2021, published 2023).

Values joined by “and” are separate entries in the source; they are usually repeats but may differ in a detail not shown here. Identical values can stand only once. Like-named read-outs stand apart in the source and are kept apart here.

One experiment has as its target JAK1 (Homo sapiens (Human), UniProt P23458). The experiment can be described thus: Z′-Lyte kinase inhibitory activity test. Type of experiment: biochemical. To be noted: ATP concentration Km. As for the experimental part: (§1) Test method: Firstly, test compounds were prepared into 10 mM stock solution with DMSO, and continuously diluted into 10 concentrations at a 3-fold gradient for later use. 5X reaction buffer was diluted with deionized water into 1×reaction buffer (50 mM HEPES pH 7.5, 0.01% Brij-35, 10 mM MgCl2, 1 mM EGTA), which was used to prepare a mixture of kinase and peptide substrate, as well as a phosphorylated peptide substrate solution. The kinase concentration was determined based on enzyme titration, and the final concentration of peptide substrate and phosphorylated peptide substrate was 2 μM. 5 μL of mixture substrate of kinase and peptide substrate was added to each well on the 384 well plate. Then 5 nL of the test compound (starting with a final concentration of 10 μM) was added with an Echo520 Sampler. […] An additional 100% phosphorylation well (5 μL phosphorylated peptide substrate solution), a 0% phosphorylated well (5 μL of a mixture of kinase and peptide substrate, without test compounds and ATP), and a 0% inhibitory well (5 μL of a mixture of kinase and peptide substrate and appropriate concentration of ATP) were set as control. Two repeats were set for each concentration. The above reaction system was incubated at 30° C. for 1.5 hours. […] 2.5 μL of the diluted mixture was added to each well and the system was incubated at 30° C. for another 1 hour. […] The substrate phosphorylation rate was obtained by calculating the ratio, and the activity of the kinase and the effect of the inhibitor on the kinase was further calculated. Every experiment was repeated at least three times.

A further experiment addresses JAK2 (Homo sapiens (Human), UniProt O60674). Kind of experiment: Z′-Lyte kinase inhibitory activity test. Type of experiment: biochemical. As for the experimental part: as §1
For the next experiment, the target named is JAK3 (Homo sapiens (Human), UniProt P52333). The experiment can be described thus: Z′-Lyte kinase inhibitory activity test. The class given is biochemical. To be noted: for JAK3 kinase inhibitory activity and selectivity (in words): summary of Table 3, activity maintained at ATP 1 mM. As for the experimental part:
as §1

Another experiment has as its target TYK2 (Homo sapiens (Human), UniProt P29597). The experiment can be described thus: Z′-Lyte kinase inhibitory activity test. To be noted: ATP concentration Km. Type of experiment: biochemical. How it is done: as §1
The test system of experiment [1] is human T lymphoblastic lymphoma cell line Jurkat. Kind of experiment: CCK-8 in vitro proliferation inhibition. Type of experiment: cell-based. The conditions noted are these: 72 hours, read-out: Inhibitory activity (IC50) on cell proliferation, JURKAT. How it is done: (§2) Cell lines: human chronic myeloid leukemia cell line K562, human acute myeloid leukemia cell line U937, human T lymphocyte leukemia cell line HuT78, and human T lymphoblastic lymphoma cell line Jurkat. Cells were purchased from the Chinese Academy of Sciences Stem Cell Bank or ATCC.
(§3) […] were cultured overnight and suspended cells were directly stimulated with drugs. […] Two repeats were set for each concentration, with a final volume of 200 μL. […] The absorbance values at 450 nm and 650 nm were measured using a microplate reader, and the increment Z (A450-A650) was derived. The inhibitory rate of drugs on cell growth was calculated by GraphPad Prism 8.0.0 through the following formula:
(§4) Inhibition rate (%)(ODcontrol−ODdosing)/ODcontrol×100%
(§5) The half inhibitory concentration (IC50) was calculated. Every experiment was repeated at least three times.

The test system of experiment [2] is human T lymphocyte leukemia cell line HuT78. The experiment can be described thus: CCK-8 in vitro proliferation inhibition. The class given is cell-based. The conditions noted are these: read-out: Inhibitory activity (IC50) on cell proliferation, HUT78. As for the experimental part: as §2, §3, §4, §5
Experiment [3] deals with human acute myeloid leukemia cell line U937. The experiment can be described thus: CCK-8 in vitro proliferation inhibition. Type of experiment: cell-based. The conditions noted are these: read-out: Inhibitory activity (IC50) on cell proliferation, U937. As for the experimental part:
as §2, §3, §4, §5

Experiment [4] concerns human chronic myeloid leukemia cell line K562. Kind of experiment: CCK-8 in vitro proliferation inhibition. Type of experiment: cell-based. To be noted: read-out: Inhibitory activity (IC50) on cell proliferation, K562. How it is done:
as §2, §3, §4, §5

JAK2, sequence (O60674 whole entry): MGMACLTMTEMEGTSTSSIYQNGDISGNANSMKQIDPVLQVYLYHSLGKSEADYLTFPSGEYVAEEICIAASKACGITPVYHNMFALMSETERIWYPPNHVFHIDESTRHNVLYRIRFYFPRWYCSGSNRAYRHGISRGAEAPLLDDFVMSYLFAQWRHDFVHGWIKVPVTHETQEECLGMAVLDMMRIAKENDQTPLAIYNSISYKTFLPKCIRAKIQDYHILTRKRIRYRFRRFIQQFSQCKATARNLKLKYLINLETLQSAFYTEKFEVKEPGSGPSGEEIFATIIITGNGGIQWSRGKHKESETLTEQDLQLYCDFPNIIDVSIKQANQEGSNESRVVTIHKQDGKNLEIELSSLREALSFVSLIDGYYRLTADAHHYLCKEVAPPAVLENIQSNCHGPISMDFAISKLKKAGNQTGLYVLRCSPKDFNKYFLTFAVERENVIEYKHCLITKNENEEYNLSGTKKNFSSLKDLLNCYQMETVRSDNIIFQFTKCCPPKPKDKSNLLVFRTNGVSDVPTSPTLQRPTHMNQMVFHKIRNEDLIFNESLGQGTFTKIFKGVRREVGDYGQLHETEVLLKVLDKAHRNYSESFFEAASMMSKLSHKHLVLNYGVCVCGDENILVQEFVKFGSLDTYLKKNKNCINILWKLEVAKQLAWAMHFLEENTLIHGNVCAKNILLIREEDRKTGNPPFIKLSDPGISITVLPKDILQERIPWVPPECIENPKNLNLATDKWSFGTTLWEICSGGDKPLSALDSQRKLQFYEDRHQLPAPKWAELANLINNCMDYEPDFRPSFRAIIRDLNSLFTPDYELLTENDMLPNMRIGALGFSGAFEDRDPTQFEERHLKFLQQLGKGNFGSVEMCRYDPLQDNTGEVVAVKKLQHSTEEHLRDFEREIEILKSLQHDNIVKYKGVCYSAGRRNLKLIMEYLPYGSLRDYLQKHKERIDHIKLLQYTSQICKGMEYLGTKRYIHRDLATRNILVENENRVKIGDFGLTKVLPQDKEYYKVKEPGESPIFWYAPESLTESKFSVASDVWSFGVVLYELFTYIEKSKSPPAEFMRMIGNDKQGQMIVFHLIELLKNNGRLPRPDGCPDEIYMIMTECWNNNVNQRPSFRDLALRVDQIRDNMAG
JAK1, sequence (P23458 whole entry): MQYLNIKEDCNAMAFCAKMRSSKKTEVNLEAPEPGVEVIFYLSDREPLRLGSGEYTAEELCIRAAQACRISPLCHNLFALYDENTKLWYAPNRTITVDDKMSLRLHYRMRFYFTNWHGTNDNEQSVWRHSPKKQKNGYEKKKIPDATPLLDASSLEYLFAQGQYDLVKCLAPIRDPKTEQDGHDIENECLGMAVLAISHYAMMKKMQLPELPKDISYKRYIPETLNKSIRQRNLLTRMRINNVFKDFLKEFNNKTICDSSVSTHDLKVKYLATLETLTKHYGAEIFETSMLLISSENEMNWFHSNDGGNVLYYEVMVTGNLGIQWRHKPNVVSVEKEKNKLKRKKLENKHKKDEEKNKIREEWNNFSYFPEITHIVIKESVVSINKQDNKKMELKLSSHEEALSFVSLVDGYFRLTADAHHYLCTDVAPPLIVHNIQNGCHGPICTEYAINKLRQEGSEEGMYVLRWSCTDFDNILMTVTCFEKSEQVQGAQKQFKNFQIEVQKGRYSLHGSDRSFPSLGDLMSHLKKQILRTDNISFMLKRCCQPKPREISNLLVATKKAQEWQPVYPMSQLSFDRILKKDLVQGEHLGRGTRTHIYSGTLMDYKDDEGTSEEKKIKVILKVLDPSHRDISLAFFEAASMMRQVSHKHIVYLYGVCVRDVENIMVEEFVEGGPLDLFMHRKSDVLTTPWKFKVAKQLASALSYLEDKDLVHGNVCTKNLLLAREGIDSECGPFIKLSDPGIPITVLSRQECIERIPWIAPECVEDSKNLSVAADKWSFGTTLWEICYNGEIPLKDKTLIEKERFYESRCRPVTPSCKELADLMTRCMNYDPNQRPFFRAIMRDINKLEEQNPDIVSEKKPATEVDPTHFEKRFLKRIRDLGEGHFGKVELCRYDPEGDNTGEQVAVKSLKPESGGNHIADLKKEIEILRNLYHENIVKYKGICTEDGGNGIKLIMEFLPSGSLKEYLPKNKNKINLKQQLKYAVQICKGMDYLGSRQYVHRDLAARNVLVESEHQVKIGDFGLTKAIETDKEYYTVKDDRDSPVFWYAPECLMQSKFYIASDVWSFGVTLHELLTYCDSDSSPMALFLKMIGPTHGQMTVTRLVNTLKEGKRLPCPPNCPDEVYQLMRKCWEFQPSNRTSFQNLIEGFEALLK
JAK3, sequence (P52333 whole entry): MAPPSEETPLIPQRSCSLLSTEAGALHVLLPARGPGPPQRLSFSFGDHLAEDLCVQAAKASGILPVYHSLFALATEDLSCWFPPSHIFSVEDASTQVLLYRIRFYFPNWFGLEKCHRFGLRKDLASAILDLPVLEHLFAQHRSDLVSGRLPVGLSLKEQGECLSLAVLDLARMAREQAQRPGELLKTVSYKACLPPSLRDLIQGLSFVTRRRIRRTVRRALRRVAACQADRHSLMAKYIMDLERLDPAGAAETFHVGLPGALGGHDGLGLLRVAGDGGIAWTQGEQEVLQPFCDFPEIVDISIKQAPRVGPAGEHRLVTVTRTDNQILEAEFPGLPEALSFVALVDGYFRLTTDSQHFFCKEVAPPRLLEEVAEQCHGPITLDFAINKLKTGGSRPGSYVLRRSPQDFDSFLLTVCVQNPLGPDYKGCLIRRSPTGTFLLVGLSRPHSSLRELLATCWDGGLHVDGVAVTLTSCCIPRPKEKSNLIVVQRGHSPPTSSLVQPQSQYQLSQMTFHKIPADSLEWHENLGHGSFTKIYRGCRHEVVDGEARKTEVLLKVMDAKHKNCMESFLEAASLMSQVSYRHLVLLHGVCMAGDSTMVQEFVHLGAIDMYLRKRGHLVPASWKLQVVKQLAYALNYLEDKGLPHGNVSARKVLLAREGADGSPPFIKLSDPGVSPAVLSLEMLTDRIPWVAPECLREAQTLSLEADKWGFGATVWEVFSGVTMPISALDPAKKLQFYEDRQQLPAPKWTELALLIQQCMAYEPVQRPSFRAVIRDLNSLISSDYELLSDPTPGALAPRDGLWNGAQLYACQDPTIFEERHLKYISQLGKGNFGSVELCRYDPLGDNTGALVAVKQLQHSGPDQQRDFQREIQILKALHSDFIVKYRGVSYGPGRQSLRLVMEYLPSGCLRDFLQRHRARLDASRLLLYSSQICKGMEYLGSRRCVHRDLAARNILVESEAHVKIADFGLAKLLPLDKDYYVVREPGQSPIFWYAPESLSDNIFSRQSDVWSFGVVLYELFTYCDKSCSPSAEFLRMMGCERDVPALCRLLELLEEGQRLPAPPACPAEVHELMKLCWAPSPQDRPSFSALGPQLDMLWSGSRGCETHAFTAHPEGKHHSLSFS
TYK2, sequence (P29597 whole entry): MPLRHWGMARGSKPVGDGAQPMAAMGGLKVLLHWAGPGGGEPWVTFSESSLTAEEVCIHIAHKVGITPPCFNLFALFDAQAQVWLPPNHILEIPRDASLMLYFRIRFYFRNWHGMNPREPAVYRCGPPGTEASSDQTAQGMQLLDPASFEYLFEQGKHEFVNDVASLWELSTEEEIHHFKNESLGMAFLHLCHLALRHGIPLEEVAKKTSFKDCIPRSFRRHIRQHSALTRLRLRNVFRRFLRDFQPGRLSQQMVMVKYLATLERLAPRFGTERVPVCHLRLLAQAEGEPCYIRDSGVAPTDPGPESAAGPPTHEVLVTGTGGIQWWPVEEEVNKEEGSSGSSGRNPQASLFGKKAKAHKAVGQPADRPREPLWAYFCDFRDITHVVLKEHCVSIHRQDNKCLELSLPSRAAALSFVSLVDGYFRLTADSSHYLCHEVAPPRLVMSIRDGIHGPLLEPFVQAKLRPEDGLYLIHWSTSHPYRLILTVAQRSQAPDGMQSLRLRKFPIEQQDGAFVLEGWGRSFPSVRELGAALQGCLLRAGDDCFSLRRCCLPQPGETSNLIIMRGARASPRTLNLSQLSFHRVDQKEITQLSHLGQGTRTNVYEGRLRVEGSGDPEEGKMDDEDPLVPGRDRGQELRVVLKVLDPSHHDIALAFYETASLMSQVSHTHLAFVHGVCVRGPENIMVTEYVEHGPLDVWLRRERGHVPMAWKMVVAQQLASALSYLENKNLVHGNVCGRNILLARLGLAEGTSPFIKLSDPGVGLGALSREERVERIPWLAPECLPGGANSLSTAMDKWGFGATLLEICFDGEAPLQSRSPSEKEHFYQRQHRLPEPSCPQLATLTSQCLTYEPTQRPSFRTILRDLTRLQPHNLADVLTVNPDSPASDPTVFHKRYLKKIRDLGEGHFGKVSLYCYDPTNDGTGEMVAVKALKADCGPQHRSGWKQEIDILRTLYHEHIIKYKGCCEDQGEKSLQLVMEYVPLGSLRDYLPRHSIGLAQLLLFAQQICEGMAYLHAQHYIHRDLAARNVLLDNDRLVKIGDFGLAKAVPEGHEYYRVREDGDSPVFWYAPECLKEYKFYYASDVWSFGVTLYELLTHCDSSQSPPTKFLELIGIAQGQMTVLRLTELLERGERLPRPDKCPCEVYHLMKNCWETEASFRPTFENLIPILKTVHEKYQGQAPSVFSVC

Take `C=C(C)C(=O)Nc1cc(Nc2ncc(Cl)c(O[C@@H]3CO[C@H]4[C@@H]3OC[C@H]4O)n2)ccc1N1CCC(N2CCN(C)CC2)CC1` [LS 5-73]: the IC50 worked out at 1.73 µM at JAK1; 1.63 µM against JAK2 (ATP concentration Km); 4940 nM against JAK3 (ATP concentration 1 mM); 72.4 nM at JAK3 (ATP concentration Km); 312 nM against TYK2; 2240 nM in experiment [1] (Homo sapiens, Jurkat). The IC50 in experiment [2] (Homo sapiens, HuT78, 72 hours) is 476 nM; in experiment [3] (Homo sapiens, U-937, 72 hours), 246 nM; in experiment [4] (Homo sapiens, K562, 72 hours) it was 117 nM.
Regarding `C=CC(=O)Nc1cc(Nc2ncc(Cl)c(O[C@@H]3CO[C@H]4[C@@H]3OC[C@H]4O)n2)ccc1F` [LS 5-62], the IC50 was 1.06 µM against JAK1; 11 µM against JAK2; 2.2 nM and 2.26 nM against JAK3; 860 nM at TYK2; 2460 nM in experiment [1]; 423 nM in experiment [2] (72 hours). Besides, the IC50 in experiment [3] (72 hours) was found to be 111 nM; in experiment [4] (72 hours) it was 637 nM. In addition, on JAK3, the “JAK3 kinase inhibitory activity and selectivity (in words)” value was “strong and selective JAK3 kinase inhibitory activity”.
As for `C=CC(=O)Nc1cc(Nc2ncc(Cl)c(O[C@@H]3CO[C@H]4[C@@H]3OC[C@H]4O)n2)ccc1N1CCC(N(C)C)C1` (stereo partly shown) [LS 5-150], the IC50 at JAK1 came out at 0.271 µM; against JAK2 (ATP concentration Km), 0.607 µM; at JAK3 (ATP concentration 1 mM), 1.74 nM; at JAK3 (ATP concentration Km), 1.98 nM; against TYK2 it was 186 nM; in experiment [1] (Homo sapiens, Jurkat) it was 275 nM. Moreover, the IC50 in experiment [2] (Homo sapiens, HuT78, 72 hours) turned out to be 272 nM; in experiment [3] (Homo sapiens, U-937, 72 hours), 15.8 nM; in experiment [4] (Homo sapiens, K562, 72 hours) it was 897 nM. The “JAK3 kinase inhibitory activity and selectivity (in words)” value on JAK3 is “strong and selective JAK3 kinase inhibitory activity”.
With `C=CC(=O)Nc1cc(Nc2ncc(Cl)cn2)ccc1N1CCC(N2CCN(C)CC2)CC1` [LS 5-126, N-(5-((5-chloropyrimidin-2-yl)amino)-2-(4-(4-methylpiperazin-1-yl)piperidin-1-yl)phenyl) acrylamide], the IC50 against JAK1 worked out at 4.77 µM; against JAK2 (ATP concentration Km), 2.08 µM; against JAK3 (ATP concentration 1 mM), 4.35 nM; at JAK3 (ATP concentration Km), 3.9 nM; against TYK2, 3120 nM; in experiment [1] (Homo sapiens, Jurkat), 551 nM. The IC50 in experiment [2] (Homo sapiens, HuT78, 72 hours) is 463 nM; in experiment [3] (Homo sapiens, U-937, 72 hours) it was 69.2 nM; in experiment [4] (Homo sapiens, K562, 72 hours), 39.9 nM.
In the case of `CN1CCN(C2CCN(c3ccc(Nc4ncc(Cl)c(O[C@@H]5CO[C@H]6[C@@H]5OC[C@H]6O)n4)cc3Cl)CC2)CC1` [LS 4-104], the IC50 against JAK2 (ATP concentration Km) is 0.291 µM; in experiment [1] (Homo sapiens, Jurkat), 2050 nM; in experiment [2] (Homo sapiens, HuT78, 72 hours) it was 2420 nM; in experiment [4] (Homo sapiens, K562, 72 hours), 542 nM.
As for `C=CC(=O)Nc1cc(Nc2ncc(Cl)c(O[C@@H]3CO[C@H]4[C@@H]3OC[C@H]4O)n2)c(OC)cc1N1CCC(N2CCN(C)CC2)CC1` [LS 5-3], the IC50 on JAK1 (in μM) was greater than 10 µM; at JAK2 (ATP concentration Km, in μM) it was greater than 10 µM; at JAK3 (ATP concentration Km), 133 nM; in experiment [1] (Homo sapiens, Jurkat), 8670 nM; in experiment [2] (Homo sapiens, HuT78, 72 hours), 8080 nM; in experiment [3] (Homo sapiens, U-937, 72 hours), 5380 nM. Also, in experiment [4] (Homo sapiens, K562, 72 hours), the IC50 is 376 nM.
Regarding `C=CC(=O)Nc1cc(Nc2ncc(Cl)c(O[C@@H]3CO[C@H]4[C@@H]3OC[C@H]4O)n2)ccc1N(C)CCN(C)C` [LS 5-88], the IC50 worked out at 2.87 µM against JAK1; 2.25 nM at JAK3 (ATP concentration 1 mM); 1.93 nM against JAK3 (ATP concentration Km); 424 nM against TYK2; 111 nM in experiment [1] (Homo sapiens, Jurkat); 81.1 nM in experiment [2] (Homo sapiens, HuT78, 72 hours). Besides, the IC50 is 15.3 nM in experiment [3] (Homo sapiens, U-937, 72 hours) and 417 nM in experiment [4] (Homo sapiens, K562, 72 hours).
`C=CC(=O)Nc1cc(Nc2ncc(Cl)c(O[C@@H]3CO[C@H]4[C@@H]3OC[C@H]4O)n2)ccc1N1C[C@@H]2C[C@H]1CO2` [LS 5-152, N-(2-(((1S,4S)-2-oxa-5-azabicyclic[2.2.1]heptane-5-yl)-5-(5-chloro-4-(((3R,3aR,6R, 6aR)-6-hydroxyhexahydrofurano[3,2-b]furan-3-yl)oxygen)pyrimidin-2-yl)amino)phenyl) acrylamide]: the IC50 came out at 0.19 µM against JAK1; 1.29 nM against JAK3 (ATP concentration 1 mM); 1.5 nM against JAK3 (ATP concentration Km); 148 nM against TYK2; 288 nM in experiment [1] (Homo sapiens, Jurkat); 428 nM in experiment [2] (Homo sapiens, HuT78, 72 hours). The IC50 in experiment [3] (Homo sapiens, U-937, 72 hours) worked out at 19.6 nM; in experiment [4] (Homo sapiens, K562, 72 hours) it was 47.2 nM.
